Laboratory results from PMC10739250 (ACS Bio & Med Chem Au, 2023).
≈ marks a conversion by molar mass, not a printed value.

Legend:
[1] = human, pH 7.4
in vitro [2] = conditions: human, microsomes
physchem [3] = conditions: thermodynamic from solid
physchem [4] = assay: physchem
in vitro [5] = conditions: hamster, hepatocytes
[6] = rat hepatocytes, 0.5 ×10^6 cells/mL
in vitro [7] = conditions: human, hepatocytes
[8] = system: SARS-CoV-2/Canada/VIDO 01/2020; format: cell-based; conditions: read-out: EC50 in the presence of the efflux inhibitor CP-100356

CC(C)(C)[C@H](NC(=O)C(F)(F)F)C(=O)N1C[C@H]2[C@@H]([C@H]1C(=O)N[C@H](C#N)C[C@@H]1CCNC1=O)C2(C)C [Compound 1, nirmatrelvir]
amount of metabolite Major [1]: 100 | amount of metabolite Minor A [1]: 5.1 ± 0.8 | amount of metabolite Minor B [1]: 2.3 ± 0.4 | increase of minor metabolites A and B on deuteration [1]: 210% | minor sites (Minor A and Minor B), share of total metabolites [1]: less than 10% | half-life (in vitro [2]): 40.2 min | solubility thermodynamic (physchem [3]): 4.79 mM (≈ 2390 µg/mL) | logD (physchem [4]): 1.86 | half-life (in vitro [5]): 57.4 min | hepatocyte stability, t1/2, rat [6]: 244.7 min | half-life (in vitro [7]): > 434 min | EC50 [8]: 200 nM
